# Assay results published in patent publication US12084579B2, “Cyclophane-sustained high performance porphyrins” (Northwestern University, priority 2020, dated 2024).
# Legend:
# [1] = Displacement (competitive) fluorescence titration, XCage^8+ displacing ExBox^4+; format: binding; settings: toward Porp-2H and Porp-Zn; water
# Description: The changes in optical properties upon porphyrin encapsulation enable a facile study of the binding events. Fluorescence titrations of Porp-2H and Porp-Zn with ExBox^4+ yielded directly their binding constants in water. Since the binding affinities for XCage^8+ with Porp-2H and Porp-Zn are too high to be determined directly, competitive titrations were performed by displacing ExBox^4+ with XCage^8+ from the complex Porp-2H(Zn)⊂ExBox^4+. The binding affinities (Table 1) between ExBox^4+ and the two porphyrins are in the order of 10^7 M^−1. […] The samples were equilibrated for 6 h prior to the fluorescence titration studies. […]
# Displacement fluorescence titration experiments: The displacement of porphyrins from Porp-2H⊂ExBox^4+ or Porp-Zn⊂ExBox^4+ by XCage^8+ to form Porp-2H⊂XCage^8+ or Porp-Zn⊂XCage^8+ regenerates the fluorescence emission of porphyrin, and the turn-on fluorescence was monitored as the signals to track the formation of the porphyrin inclusion complexes with XCage^8+. […] The samples were equilibrated at room temperature for 6 h, and the fluorescence intensity of each sample was recorded. The average fluorescence intensity of the three sets samples was plotted against the concentration of XCage^8+ to generate the binding isotherm, which was fitted by a displacement binding model^S15 to calculate the binding constant Ka using Origin Lab 8.6 software^S16.
# [2] = Isothermal titration calorimetry, single injection, XCage^8+; format: binding; settings: toward Porp-2H and Porp-Zn
# Description: Since the high binding affinity and aggregation of the two porphyrins prevent the accurate measurement of binding constants by isothermal titration calorimetry (ITC), a single injection experiment was performed in order to determine the binding enthalpy. The Gibbs free energy of the receptor-substrate complexation was estimated directedly from the corresponding fluorescent titrations, providing a value for TAS. Compared with ExBox^4+, the binding enthalpies of XCage^8+ are in the range of 7-8 kcal mol^−1 larger, a major contributing factor to the enhanced affinity.
# Isothermal titration calorimetry: Isothermal titration was performed by TA Nano Isothermal Titration Calorimeter at 25° C. A Hastelloy cell was used with an active cell volume 190 μL. The stirring speed was set at 150 rpm. The solutions of receptors and substrates were prepared in Milli-Q water and allowed to equilibrate overnight if necessary. The aggregation of porphyrins and their high affinity binding prevented the accurate determination of binding constants, we thus only evaluated the binding enthalpy by single injection method.^S17
structure (smiles),measurement,setting,value
c1cc2ccc1C[n+]1ccc(cc1)-c1cc3cc(c1)-c1cc4cc(c1)-c1cc[n+](cc1)Cc1ccc(cc1)C[n+]1ccc(cc1)-c1cc(cc(c1)-c1cc(cc(c1)-c1cc[n+](cc1)Cc1ccc(cc1)C[n+]1ccc-3cc1)-c1cc[n+](cc1)C2)-c1cc[n+](cc1)Cc1ccc(cc1)C[n+]1ccc-4cc1 [XCage^8+],enhancement in the binding affinities compared with ExBox^4+,[1],~1000 fold
same,binding enthalpies larger compared with ExBox^4+,[2],7 to 8 kcal/mol
